What was measured:
[1] = target: EGFR (Homo sapiens, UniProt P00533); experiment: Immunoblot analysis of EGFR phosphorylation and total EGFR; conditions: for total EGFR levels: upon treatment, PrEC
[2] = tested on: RWPE cells; experiment: Sarcosine-induced invasion after pre-treatment with EGFR inhibitor; format: cell-based; conditions: pre-treatment of RWPE cells with 10 μM
Source text: (§1) To investigate the biological role of sarcosine elevation in prostate cancer, prostate cancer cell lines VCaP, DU145, 22RV1 and LNCaP and their benign epithelial counterparts, primary benign prostate epithelial cells PrEC and immortalized benign RWPE prostate cells were used.

[3] = tested on: RWPE cells; experiment: Invasion upon exogenous sarcosine or glycine with siRNA knock-down of GNMT; format: cell-based
Protocol: (§2) To determine if sarcosine plays a role in this process, it was added directly to non-invasive benign prostate epithelial cells. Alanine (an isomer of sarcosine) was used as a control for these experiments. […] The present invention is not limited to a particular mechanism. Indeed, an understanding of the mechanism is not necessary to practice the present invention.

[4] = tested on: benign prostate epithelial cells; experiment: Modified Boyden chamber matrigel invasion assay, exogenous addition of amino acids; format: cell-based; conditions: compared with sarcosine
Protocol: as §1, §2

[5] = tested on: p38MAPK; experiment: Immunoblot analysis of p38MAPK phosphorylation; format: cell-based; conditions: sarcosine-treated PrEC
Source text: (§3) Also total EGFR levels were elevated upon treatment with alanine or sarcosine. […]. […] This observation was further strengthened using both antibody-mediated inhibition of EGFRactivity and siRNA-mediated knock-down of receptor levels.

[6] = tested on: src; experiment: Immunoblot analysis of src phosphorylation; format: cell-based; conditions: sarcosine-treated PrEC compared to alanine-treated controls
Source text: as §3

[7] = control non-target siRNA-transfected cells

Chain of EGFR (P00533 25-1210): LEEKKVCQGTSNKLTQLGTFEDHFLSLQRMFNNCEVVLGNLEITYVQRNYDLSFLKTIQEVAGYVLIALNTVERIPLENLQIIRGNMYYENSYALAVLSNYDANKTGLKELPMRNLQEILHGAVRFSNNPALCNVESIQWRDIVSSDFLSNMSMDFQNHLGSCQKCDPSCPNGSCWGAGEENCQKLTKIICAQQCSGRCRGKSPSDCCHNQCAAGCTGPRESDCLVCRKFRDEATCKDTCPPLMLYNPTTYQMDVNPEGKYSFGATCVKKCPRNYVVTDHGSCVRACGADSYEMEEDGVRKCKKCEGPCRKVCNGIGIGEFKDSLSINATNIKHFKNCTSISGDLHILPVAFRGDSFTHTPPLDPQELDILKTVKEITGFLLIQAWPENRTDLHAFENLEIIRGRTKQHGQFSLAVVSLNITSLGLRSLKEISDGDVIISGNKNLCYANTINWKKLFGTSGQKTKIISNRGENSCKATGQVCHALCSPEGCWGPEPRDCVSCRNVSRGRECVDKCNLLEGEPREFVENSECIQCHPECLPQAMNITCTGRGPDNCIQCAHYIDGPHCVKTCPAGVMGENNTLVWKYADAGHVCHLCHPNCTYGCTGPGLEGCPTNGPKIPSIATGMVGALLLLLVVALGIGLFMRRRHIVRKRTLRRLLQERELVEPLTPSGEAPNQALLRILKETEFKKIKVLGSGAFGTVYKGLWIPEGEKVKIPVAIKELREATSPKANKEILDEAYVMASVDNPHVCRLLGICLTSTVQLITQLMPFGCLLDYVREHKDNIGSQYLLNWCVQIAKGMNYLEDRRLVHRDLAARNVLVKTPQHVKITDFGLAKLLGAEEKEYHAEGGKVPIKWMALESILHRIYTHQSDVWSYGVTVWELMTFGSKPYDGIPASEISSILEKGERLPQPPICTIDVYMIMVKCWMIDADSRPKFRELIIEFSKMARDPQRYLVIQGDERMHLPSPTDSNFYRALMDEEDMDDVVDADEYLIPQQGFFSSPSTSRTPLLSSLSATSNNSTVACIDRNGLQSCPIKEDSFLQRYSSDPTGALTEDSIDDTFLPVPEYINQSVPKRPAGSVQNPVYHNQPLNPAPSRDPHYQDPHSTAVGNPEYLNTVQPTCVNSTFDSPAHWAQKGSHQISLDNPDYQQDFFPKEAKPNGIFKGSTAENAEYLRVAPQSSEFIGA

total EGFR levels [1]	SMILES	invasion upon exogenous amino acid addition, mean±SEM ([3]; GNMT knockdown)	invasion upon exogenous amino acid addition, mean±SEM [3, 7]	also measured
elevated	C[C@H](N)C(=O)O [alanine, reference compound]	–	–	–
–	C#Cc1cccc(Nc2ncnc3cc(OCCOC)c(OCCOC)cc23)c1 [erlotinib]	–	–	decrease in sarcosine-induced invasion [2]: 2 fold
–	NCC(=O)O [glycine]	0.20±0.03	0.46±0.04	induction of invasion [4]: also induced invasion in these cells, although to a lesser degree than sarcosine
elevated	CNCC(=O)O [sarcosine, N-methylglycine]	0.64±0.07	0.65±0.05	p38MAPK phosphorylation [5]: phosphorylation of p38MAPK; src phosphorylation [6]: time-dependent increase; EGFR phosphorylation ([1]; sarcosine-treated PrEC compared to alanine-treated controls): time-dependent increase

From patent US20140051601A1, “METABOLOMIC PROFILING OF CANCER” (METABOLAN INC., priority 2006, published 2014)
